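Protocol summary: plate cells (96-well), add compound at 5 concentrations, incubate 48 h, interpolate endpoints linearly. GI50 is the concentration that inhibits growth by half. The concentration for full growth arrest is given as TGI.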
Columns and labels:
Experiment in all cases: NCI tumour cell line growth inhibition, 48 h
[1] = test system: HCT-15 colon
[2] = test system: LOX IMVI melanoma
[3] = test system: UACC-62 melanoma
[4] = test system: SNB-78 CNS
[5] = test system: RXF 393 renal
[6] = test system: LXFL 529 NSCLC
[7] = test system: IGROV1 ovarian
[8] = test system: DLD-1 colon
[9] = test system: NCI-H23 lung
[10] = test system: SNB-75 CNS
[11] = test system: UACC-257 melanoma
[12] = test system: CAKI-1 renal
[13] = test system: K-562 leukemia
[14] = test system: MALME-3M melanoma
[15] = test system: TK-10 renal
[16] = test system: ACHN renal
[17] = test system: SN12C renal
[18] = test system: M14 melanoma
[19] = test system: OVCAR-8 ovarian
[20] = test system: HOP-62 NSCLC
[21] = test system: XF 498 CNS
[22] = test system: COLO 205 colon
[23] = test system: SK-OV-3 ovarian
[24] = test system: SR leukemia
[25] = test system: HCC-2998 colon
[26] = test system: SF-268 CNS
[27] = test system: SK-MEL-2 melanoma
[28] = test system: SF-539 CNS
[29] = test system: HCT-116 colon
[30] = test system: HOP-18 NSCLC
[31] = test system: CCRF-CEM leukemia
[32] = test system: SW-620 colon
[33] = test system: DMS 114 small cell lung
[34] = test system: HOP-92 NSCLC
[35] = test system: OVCAR-3 ovarian
[36] = test system: MOLT-4 leukemia
[37] = test system: NCI-H522 lung
[38] = test system: RXF-631 renal
[39] = test system: DMS 273 small cell lung
[40] = test system: 786-0 renal
[41] = test system: SK-MEL-5 melanoma
[42] = test system: OVCAR-4 ovarian
[43] = test system: KM12 colon
[44] = test system: A549 NSCLC
[45] = test system: EKVX NSCLC
[46] = test system: UO-31 renal
[47] = test system: NCI-H226 lung
[48] = test system: SK-MEL-28 melanoma
[49] = test system: SF-295 CNS
[50] = test system: NCI-H460 lung
[51] = test system: M19-MEL melanoma
[52] = test system: U251 CNS
[53] = test system: KM20L2 colon
[54] = test system: A498 renal
[55] = test system: SNB-19 CNS
[56] = test system: OVCAR-5 ovarian
[57] = test system: RPMI-8226 leukemia
[58] = test system: HL-60(TB) leukemia
[59] = test system: HT29 colon

## O=C(c1ccccc1)c1ccc(OCCOc2ccc(Nc3ccccc3)cc2)cc1
[1]
  TGI: > 100 µM
[2]
  TGI: > 100 µM
[3]
  TGI: > 100 µM
[4]
  TGI: > 100 µM
[5]
  TGI: 67.3 µM
[6]
  TGI: > 100 µM
[7]
  TGI: > 100 µM
[8]
  TGI: > 100 µM
[9]
  TGI: > 100 µM
[10]
  TGI: 33.4 µM
[11]
  TGI: > 100 µM
[12]
  TGI: > 100 µM
[13]
  TGI: > 100 µM
[14]
  TGI: 71 µM
[15]
  TGI: 84.3 µM
[16]
  TGI: 84.3 µM
[17]
  TGI: > 100 µM
[18]
  TGI: > 100 µM
[19]
  TGI: > 100 µM
[20]
  TGI: 81.2 µM
[21]
  TGI: 48.4 µM
[22]
  TGI: > 100 µM
[23]
  TGI: 64.4 µM
[24]
  TGI: > 100 µM
[25]
  TGI: > 100 µM
[26]
  TGI: > 100 µM
[27]
  TGI: > 100 µM
[28]
  TGI: > 100 µM
[29]
  TGI: > 100 µM
[30]
  TGI: > 100 µM
[31]
  TGI: > 100 µM
[32]
  TGI: > 100 µM
[33]
  TGI: > 100 µM
[34]
  TGI: 73.5 µM
[35]
  TGI: > 100 µM
[36]
  TGI: > 100 µM
[37]
  TGI: 53.3 µM
[38]
  TGI: 82.8 µM
[39]
  TGI: > 100 µM
[40]
  TGI: > 100 µM
[41]
  TGI: > 100 µM
[42]
  TGI: 54.8 µM
[43]
  TGI: > 100 µM
[44]
  TGI: > 100 µM
[45]
  TGI: > 100 µM
[46]
  TGI: > 100 µM
[47]
  TGI: > 100 µM
[48]
  TGI: > 100 µM
[49]
  TGI: 93.9 µM
[50]
  TGI: > 100 µM
[51]
  TGI: > 100 µM
[52]
  TGI: 57.1 µM
[53]
  TGI: > 100 µM
[54]
  TGI: 79 µM
[55]
  TGI: > 100 µM
[56]
  TGI: > 100 µM

## C1C[S][Ge]2([S]CCO1)[S]CCOCC[S]2
[1]
  GI50: > 100 µM
  TGI: > 100 µM
[3]
  GI50: > 100 µM
  TGI: > 100 µM
[4]
  GI50: > 100 µM
  TGI: > 100 µM
[6]
  GI50: > 100 µM
  TGI: > 100 µM
[7]
  GI50: > 100 µM
  TGI: > 100 µM
[8]
  GI50: > 100 µM
  TGI: > 100 µM
[9]
  GI50: > 100 µM
  TGI: > 100 µM
[10]
  GI50: 2.51 µM
  TGI: 48.4 µM
[12]
  GI50: > 100 µM
  TGI: > 100 µM
[13]
  GI50: > 100 µM
  TGI: > 100 µM
[14]
  GI50: > 100 µM
  TGI: > 100 µM
[16]
  GI50: > 100 µM
  TGI: > 100 µM
[17]
  GI50: > 100 µM
  TGI: > 100 µM
[18]
  GI50: > 100 µM
  TGI: > 100 µM
[20]
  GI50: > 100 µM
  TGI: > 100 µM
[21]
  GI50: > 100 µM
  TGI: > 100 µM
[22]
  GI50: > 100 µM
  TGI: > 100 µM
[23]
  GI50: > 100 µM
  TGI: > 100 µM
[24]
  GI50: > 100 µM
  TGI: > 100 µM
[25]
  GI50: > 100 µM
  TGI: > 100 µM
[26]
  GI50: > 100 µM
  TGI: > 100 µM
[27]
  GI50: > 100 µM
  TGI: > 100 µM
[28]
  GI50: > 100 µM
  TGI: > 100 µM
[29]
  GI50: > 100 µM
  TGI: > 100 µM
[31]
  GI50: > 100 µM
  TGI: > 100 µM
[33]
  GI50: > 100 µM
  TGI: > 100 µM
[34]
  GI50: > 100 µM
  TGI: > 100 µM
[36]
  GI50: > 100 µM
  TGI: > 100 µM
[37]
  GI50: > 100 µM
  TGI: > 100 µM
[38]
  GI50: > 100 µM
  TGI: > 100 µM
[39]
  GI50: > 100 µM
  TGI: > 100 µM
[40]
  GI50: > 100 µM
  TGI: > 100 µM
[42]
  GI50: > 100 µM
  TGI: > 100 µM
[46]
  GI50: > 100 µM
  TGI: > 100 µM
[47]
  GI50: > 100 µM
  TGI: > 100 µM
[48]
  GI50: > 100 µM
  TGI: > 100 µM
[57]
  GI50: > 100 µM
  TGI: > 100 µM
[58]
  GI50: > 100 µM
  TGI: > 100 µM
[51]
  GI50: > 100 µM
  TGI: > 100 µM
[54]
  GI50: > 100 µM
  TGI: > 100 µM

## CCSC1(SCC)CC(Cc2ccc(OC)cc2)N(C=NC(C)(C)C)C1 (stereo not drawn)
[1]
  TGI: > 100 µM
[2]
  TGI: 32.4 µM
[3]
  TGI: 67 µM
[4]
  TGI: > 100 µM
[5]
  TGI: 40.9 µM
[6]
  TGI: 93.6 µM
[7]
  TGI: > 100 µM
[8]
  TGI: > 100 µM
[9]
  TGI: 43.3 µM
[10]
  TGI: > 100 µM
[11]
  TGI: 47.5 µM
[12]
  TGI: > 100 µM
[13]
  TGI: 53.8 µM
[14]
  TGI: 37.5 µM
[15]
  TGI: 63.2 µM
[16]
  TGI: > 100 µM
[17]
  TGI: 84.4 µM
[18]
  TGI: 32.2 µM
[19]
  TGI: > 100 µM
[20]
  TGI: > 100 µM
[21]
  TGI: 38.9 µM
[22]
  TGI: 74.6 µM
[23]
  TGI: 83.6 µM
[24]
  TGI: 34.2 µM
[25]
  TGI: 40.2 µM
[26]
  TGI: > 100 µM
[27]
  TGI: > 100 µM
[28]
  TGI: > 100 µM
[29]
  TGI: 92.8 µM
[30]
  TGI: > 100 µM
[31]
  TGI: 52.4 µM
[32]
  TGI: 43.1 µM
[33]
  TGI: 43.4 µM
[34]
  TGI: 25 µM
[35]
  TGI: > 100 µM
[36]
  TGI: 40.9 µM
[37]
  TGI: 31.1 µM
[59]
  TGI: 51.5 µM
[39]
  TGI: > 100 µM
[40]
  TGI: > 100 µM
[41]
  TGI: 31.3 µM
[42]
  TGI: > 100 µM
[43]
  TGI: 64.8 µM
[44]
  TGI: > 100 µM
[45]
  TGI: > 100 µM
[46]
  TGI: 87.5 µM
[47]
  TGI: > 100 µM
[48]
  TGI: 88.4 µM
[58]
  TGI: 26.6 µM
[49]
  TGI: 45.5 µM
[50]
  TGI: > 100 µM
[51]
  TGI: 97.7 µM
[52]
  TGI: 62.7 µM
[53]
  TGI: 56.9 µM
[54]
  TGI: > 100 µM
[55]
  TGI: > 100 µM
[56]
  TGI: > 100 µM
